Assays:
7620 = target: T1, 7620 (Trypanosoma brucei, UniProt Q57V83); type: cell-based; conditions: pH 7.0, 30 °C, excess competitor
T1 construct: gene Tb08.30P3.140; full-length ORF, untagged, in pDR197; expressed in S. cerevisiae 22574d

[1] = substrate: O=C(O)[C@@H]1CCCN1; test: cells, lysate or membranes; conditions: pH 7.0, 30 °C, 100 mM glucose, labelled compound

Molecule: C[C@H](N)C(=O)O [alanine]
- relative uptake rate (%) 7620: proline being the best substrate, followed by alanine and cysteine

Molecule: N[C@@H](CS)C(=O)O [cysteine]
- relative uptake rate (%) 7620: proline being the best substrate, followed by alanine and cysteine

B1: 7620 (Trypanosoma brucei brucei TREU927) (protein)
chain: MTSINAQPPNSATYPQDDHGSAEVVNLNAEVERPQPEEQKDGGGCFARVSLFMATIIPPGGIAASAFNIGSTTVGAGIFGLPAAANSSGLVMAMIYLIIITAMTIFSIYALGVAAERTNIRTYEGVARALLGPWGAYYTAATRAFFSFSACVAYVISVGDILSATLKGTNAPDFLKQKSGNRLLTSLMWLCFMLPLVIPRHIDSLRHVSTIAFILMIYMVLVVVVHSCMNGLPENIKNVSVGKDDNAEIILFNSGNRAIEGLGVFIFSYLFQITAYEVYMDMTNRSVGKFVLVVTIAMGMCLPMYALTAFFGYMDFGRNVTGSVLLQYDPVNYPAVMVGFVGVLVMLFVSYALLGLACRNALYDVIGWDFREVAFWKHCIAVVTLSIVMLLCGLFIPKITTVLGFAGSFCGGSLGFILPALFFMYSGGFTWQKVGPFYYISTYVLLITGVIAAVFGTGATIWAVTVG
- Km [1]: 600 µM
